The assay relates to P388 leukemia ip, CD2F1 mice, survival T/C. Description: NCI In Vivo Anticancer Drug Screen. Data for tumor model P388 Leukemia (intraperitoneal) in CD2F1 (CDF1) mice. Conditions: endpoint: median survival time, higher = longer survival. The method in brief: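 Mice carrying the transplanted tumor received test compound or vehicle. Survival was recorded in each group, and the value is the treated-group measurement divided by that of the vehicle-treated control group.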

[1] abbreviates: dose: 50.0 mg/kg/injection, schedule: Q01DX009 (ip), vehicle: Klucel (hydroxypropylcellulose) (HPC).
Where [2] appears, read: dose: 100.0 mg/kg/injection, schedule: Q01DX009 (ip), vehicle: Klucel (hydroxypropylcellulose) (HPC).
Where [3] appears, read: dose: 200.0 mg/kg/injection, schedule: Q01DX009 (ip), vehicle: Klucel (hydroxypropylcellulose) (HPC).
The mark [4] stands for this setting: dose: 100.0 mg/kg/injection, schedule: Q04DX003 (ip), vehicle: other.
Setting [5] is: dose: 60.0 mg/kg/injection, schedule: Q01DX005 (ip), vehicle: Klucel (hydroxypropylcellulose) (HPC).
[6] abbreviates: dose: 120.0 mg/kg/injection, schedule: Q01DX005 (ip), vehicle: Klucel (hydroxypropylcellulose) (HPC).
Setting [7] is: dose: 25.0 mg/kg/injection, schedule: Q01DX009 (ip), vehicle: Klucel (hydroxypropylcellulose) (HPC).

Where “and” joins values, the source holds several entries; their conditions need not be identical. Identical values can stand only once. Toxic doses and inconclusive results are not listed.

Turning to `CCn1nnnc1Nc1ccccc1`, the T/C by setting is: under setting [1], 120 % of control; under setting [2], 123 % of control; under setting [3], 113 % of control.

Take `CC(C)=CC(=O)OC(=O)C=C(C)C`: the T/C runs as follows: under setting [4], 100 % of control; (dose: 200.0 mg/kg/injection, schedule: Q04DX003 (ip), vehicle: other) 100 % of control; (dose: 400.0 mg/kg/injection, schedule: Q04DX003 (ip), vehicle: other) 100 % of control.

As to `O=C(Nc1cccc2cccnc12)C1=C(Nc2cccc3cccnc23)CCC1`, the T/C by setting is: (dose: 6.25 mg/kg/injection, schedule: Q01DX009 (ip), vehicle: saline with Tween-80) 107 % of control; (dose: 12.5 mg/kg/injection, schedule: Q01DX009 (ip), vehicle: saline with Tween-80) 100 % of control; (dose: 25.0 mg/kg/injection, schedule: Q01DX009 (ip), vehicle: saline with Tween-80) 98 % of control; (dose: 50.0 mg/kg/injection, schedule: Q01DX009 (ip), vehicle: saline with Tween-80) 92 % of control; (dose: 200.0 mg/kg/injection, schedule: Q01DX009 (ip), vehicle: saline with Tween-80) 98 % of control.

Take `C[CH2][Sn]1([CH2]C)[O]C(=O)[O][Sn]([CH2]C)([CH2]C)[O]1`: the T/C by setting is: (dose: 3.12 mg/kg/injection, schedule: Q01DX005 (ip), vehicle: Klucel (hydroxypropylcellulose) (HPC)) 122 % of control; (dose: 6.25 mg/kg/injection, schedule: Q01DX005 (ip), vehicle: Klucel (hydroxypropylcellulose) (HPC)) 119 % of control.

Regarding `Cc1ccc(S(=O)(=O)C(Cl)(SOCc2ccccc2)Sc2ccccc2)cc1` (centres undefined), the T/C runs as follows: under setting [1], 109 % of control; under setting [2], 100 % of control; under setting [3], 114 % of control.

For `O=C(CNC(=O)Nc1ccc(Cl)c(Cl)c1)N/N=C/C=C/c1ccccc1`, the T/C (dose: 15.0 mg/kg/injection, schedule: Q01DX005 (ip), vehicle: saline with Tween-80) was 96 % of control and the T/C (dose: 30.0 mg/kg/injection, schedule: Q01DX005 (ip), vehicle: saline with Tween-80) was 87 % of control.

In the case of `CC1OC(Sc2ncc[nH]2)C(O)C(O)C1O` (centres undefined), the T/C by setting is: (dose: 60.0 mg/kg/injection, schedule: Q01DX005 (ip), vehicle: saline) 95 % of control; (dose: 120.0 mg/kg/injection, schedule: Q01DX005 (ip), vehicle: saline) 94 % of control; (dose: 240.0 mg/kg/injection, schedule: Q01DX005 (ip), vehicle: saline) 100 % of control.

As to `COC1(OC)OC(c2ccc([N+](=O)[O-])cc2)=C(c2ccc([N+](=O)[O-])cc2)OC1(OC)OC`, the T/C was 90 % of control under setting [5] and 87 % of control under setting [6].

In the case of `O=NN(CCCl)C(=O)NC1CCN(Cc2ccccc2)CC1`, the T/C by setting is: (dose: 12.5 mg/kg/injection, schedule: Q04DX003 (ip), vehicle: other) 154 % of control; (dose: 12.5 mg/kg/injection, schedule: Q04DX003 (ip), vehicle: water) 184 % of control; (dose: 25.0 mg/kg/injection, schedule: Q04DX003 (ip), vehicle: other) 183 % of control; (dose: 25.0 mg/kg/injection, schedule: Q04DX003 (ip), vehicle: water) 225 % of control; (dose: 50.0 mg/kg/injection, schedule: Q04DX003 (ip), vehicle: other) 287 % of control; (dose: 50.0 mg/kg/injection, schedule: Q04DX003 (ip), vehicle: water) 281 % of control. Moreover, under setting [4], the T/C is 361 % of control.

With `CC(=O)OCN(C)N=Nc1ccc(C(N)=O)cc1`, the T/C under setting [5] was 92 % of control; the T/C under setting [6] was 95 % of control; the T/C (dose: 240.0 mg/kg/injection, schedule: Q01DX005 (ip), vehicle: Klucel (hydroxypropylcellulose) (HPC)) was 95 % of control.

Regarding `CC1(C)OC(C2SCCS2)C2OC(=O)C(O[Si](C)(C)C(C)(C)C)C2O1` (centres undefined), the T/C is 99 % of control (dose: 60.0 mg/kg/injection, schedule: Q01DX005 (ip), vehicle: saline with Tween-80); 93 % of control (dose: 120.0 mg/kg/injection, schedule: Q01DX005 (ip), vehicle: saline with Tween-80); 93 % of control (dose: 240.0 mg/kg/injection, schedule: Q01DX005 (ip), vehicle: saline with Tween-80).

Turning to `CCCN=c1c2c(OC)c(OC)ccc2cc2n1CCc1cc3c(cc1-2)OCO3`, the T/C runs as follows: (dose: 0.63 mg/kg/injection, schedule: Q01DX009 (ip), vehicle: water) 110 % of control; (dose: 1.25 mg/kg/injection, schedule: Q01DX009 (ip), vehicle: water) 99 % of control; (dose: 2.5 mg/kg/injection, schedule: Q01DX009 (ip), vehicle: water) 110 % of control; (dose: 5.0 mg/kg/injection, schedule: Q01DX009 (ip), vehicle: water) 110 % of control; (dose: 10.0 mg/kg/injection, schedule: Q01DX009 (ip), vehicle: water) 115 % of control.

Turning to `C[C@@H](CN1CC(=O)NC(=O)C1)N1CC(=O)NC(=O)C1`, the T/C runs as follows: (dose: 0.06 mg/kg/injection, schedule: Q01DX009 (ip), vehicle: Klucel (hydroxypropylcellulose) (HPC)) 108 % of control; (dose: 0.12 mg/kg/injection, schedule: Q01DX009 (ip), vehicle: Klucel (hydroxypropylcellulose) (HPC)) 101 % of control; (dose: 0.25 mg/kg/injection, schedule: Q01DX009 (ip), vehicle: Klucel (hydroxypropylcellulose) (HPC)) 111 % of control; (dose: 0.5 mg/kg/injection, schedule: Q01DX009 (ip), vehicle: Klucel (hydroxypropylcellulose) (HPC)) 115 % of control; (dose: 1.0 mg/kg/injection, schedule: Q01DX009 (ip), vehicle: Klucel (hydroxypropylcellulose) (HPC)) 121 % of control; (dose: 4.0 mg/kg/injection, schedule: Q01DX009 (ip), vehicle: Klucel (hydroxypropylcellulose) (HPC)) 154 % of control. Besides, the T/C is, setting by setting: (dose: 8.0 mg/kg/injection, schedule: Q01DX009 (ip), vehicle: Klucel (hydroxypropylcellulose) (HPC)) 159 % of control; (dose: 16.0 mg/kg/injection, schedule: Q01DX005 (iv), vehicle: suspension in saline) 117 % of control; (dose: 16.0 mg/kg/injection, schedule: Q01DX009 (ip), vehicle: Klucel (hydroxypropylcellulose) (HPC)) 187 % of control; under setting [7], 178 % of control; (dose: 32.0 mg/kg/injection, schedule: Q01DX005 (iv), vehicle: suspension in saline) 119 % of control; (dose: 32.0 mg/kg/injection, schedule: Q01DX009 (ip), vehicle: Klucel (hydroxypropylcellulose) (HPC)) 218 % of control. Also, the T/C under setting [1] was 166 % of control and 221 % of control; the T/C (dose: 64.0 mg/kg/injection, schedule: Q01DX009 (ip), vehicle: Klucel (hydroxypropylcellulose) (HPC)) was 218 % of control; the T/C under setting [2] is 200 % of control; the T/C (dose: 128.0 mg/kg/injection, schedule: Q01DX005 (ip), vehicle: suspension in saline) is 161 % of control and 177 % of control; the T/C (dose: 128.0 mg/kg/injection, schedule: Q01DX009 (ip), vehicle: Klucel (hydroxypropylcellulose) (HPC)) is 229 % of control; the T/C under setting [3] is 113 % of control and 92 % of control. The T/C by setting is: (dose: 256.0 mg/kg/injection, schedule: Q01DX001 (ip), vehicle: Klucel (hydroxypropylcellulose) (HPC)) 97 % of control; (dose: 256.0 mg/kg/injection, schedule: Q01DX005 (ip), vehicle: suspension in saline) 194 % of control and 208 % of control; (dose: 256.0 mg/kg/injection, schedule: Q01DX005 (iv), vehicle: suspension in saline) 171 % of control and 180 % of control; (dose: 400.0 mg/kg/injection, schedule: Q01DX009 (ip), vehicle: Klucel (hydroxypropylcellulose) (HPC)) 92 % of control; (dose: 512.0 mg/kg/injection, schedule: Q01DX001 (ip), vehicle: Klucel (hydroxypropylcellulose) (HPC)) 122 % of control; (dose: 512.0 mg/kg/injection, schedule: Q01DX005 (ip), vehicle: suspension in saline) 177 % of control. Besides, the T/C (dose: 512.0 mg/kg/injection, schedule: Q01DX005 (iv), vehicle: suspension in saline) is 171 % of control; the T/C (dose: 600.0 mg/kg/injection, schedule: Q04DX003 (ip), vehicle: saline) was 205 % of control; the T/C (dose: 2048.0 mg/kg/injection, schedule: Q01DX001 (ip), vehicle: Klucel (hydroxypropylcellulose) (HPC)) was 159 % of control.

As for `CCCCC(NC(=O)C(Cl)Cl)C(=O)O` (centres undefined), the T/C (dose: 50.0 mg/kg/injection, schedule: Q01DX005 (ip), vehicle: Klucel (hydroxypropylcellulose) (HPC)) was 94 % of control; the T/C (dose: 100.0 mg/kg/injection, schedule: Q01DX005 (ip), vehicle: Klucel (hydroxypropylcellulose) (HPC)) is 98 % of control; the T/C (dose: 200.0 mg/kg/injection, schedule: Q01DX005 (ip), vehicle: Klucel (hydroxypropylcellulose) (HPC)) is 88 % of control.

On to `CN(C)C(C#N)C(=O)c1ccccc1` (centres undefined), for which the T/C by setting is: under setting [7], 107 % of control; under setting [1], 110 % of control; under setting [2], 104 % of control.

Source of the values: PubChem BioAssay AID330 (DTP/NCI, 2004).
